Measurements published in publication PMC6533912 (Journal of medicinal chemistry, 2018).

Experiments:
[1] = target: T1, human 5-HT2CR (unedited INI isoform) (Homo sapiens, UniProt P28335); settings: cited from earlier work
T1 sequence (P28335 33-458): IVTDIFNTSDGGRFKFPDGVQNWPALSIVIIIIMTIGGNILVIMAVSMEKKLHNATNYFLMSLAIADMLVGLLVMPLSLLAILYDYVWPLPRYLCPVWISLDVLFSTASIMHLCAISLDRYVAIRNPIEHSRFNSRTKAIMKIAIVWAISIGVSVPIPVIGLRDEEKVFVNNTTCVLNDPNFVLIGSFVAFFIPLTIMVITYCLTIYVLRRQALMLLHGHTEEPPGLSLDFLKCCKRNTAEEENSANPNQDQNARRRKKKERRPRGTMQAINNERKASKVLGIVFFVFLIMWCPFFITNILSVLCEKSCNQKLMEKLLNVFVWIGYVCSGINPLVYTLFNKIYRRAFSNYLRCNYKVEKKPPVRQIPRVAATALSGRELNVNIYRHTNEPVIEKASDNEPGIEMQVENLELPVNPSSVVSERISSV

human 5-HT2AR [2] = target: T2, human 5-HT2AR (Homo sapiens, UniProt P28223); settings: cited from earlier work
T2 sequence (P28223 whole entry): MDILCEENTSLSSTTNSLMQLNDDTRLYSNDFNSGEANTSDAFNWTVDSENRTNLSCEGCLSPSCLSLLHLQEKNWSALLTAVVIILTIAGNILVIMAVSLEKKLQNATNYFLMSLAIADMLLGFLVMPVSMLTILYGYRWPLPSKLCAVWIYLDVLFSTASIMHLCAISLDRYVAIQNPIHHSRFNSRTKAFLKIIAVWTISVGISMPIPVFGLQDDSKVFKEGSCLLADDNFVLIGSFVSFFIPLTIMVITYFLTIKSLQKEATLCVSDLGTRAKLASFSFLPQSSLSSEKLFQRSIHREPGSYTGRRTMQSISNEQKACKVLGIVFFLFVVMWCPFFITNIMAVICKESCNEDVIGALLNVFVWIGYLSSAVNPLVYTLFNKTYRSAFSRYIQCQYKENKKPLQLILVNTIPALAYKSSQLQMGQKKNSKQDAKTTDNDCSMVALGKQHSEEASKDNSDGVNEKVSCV

[3] = target: norepinephrine transporter (NET) (Homo sapiens, UniProt P23975); assay: NIMH PDSP radioligand displacement; settings: 10 μM
Sequence of norepinephrine transporter (NET) (P23975 whole entry, species assumed, canonical isoform): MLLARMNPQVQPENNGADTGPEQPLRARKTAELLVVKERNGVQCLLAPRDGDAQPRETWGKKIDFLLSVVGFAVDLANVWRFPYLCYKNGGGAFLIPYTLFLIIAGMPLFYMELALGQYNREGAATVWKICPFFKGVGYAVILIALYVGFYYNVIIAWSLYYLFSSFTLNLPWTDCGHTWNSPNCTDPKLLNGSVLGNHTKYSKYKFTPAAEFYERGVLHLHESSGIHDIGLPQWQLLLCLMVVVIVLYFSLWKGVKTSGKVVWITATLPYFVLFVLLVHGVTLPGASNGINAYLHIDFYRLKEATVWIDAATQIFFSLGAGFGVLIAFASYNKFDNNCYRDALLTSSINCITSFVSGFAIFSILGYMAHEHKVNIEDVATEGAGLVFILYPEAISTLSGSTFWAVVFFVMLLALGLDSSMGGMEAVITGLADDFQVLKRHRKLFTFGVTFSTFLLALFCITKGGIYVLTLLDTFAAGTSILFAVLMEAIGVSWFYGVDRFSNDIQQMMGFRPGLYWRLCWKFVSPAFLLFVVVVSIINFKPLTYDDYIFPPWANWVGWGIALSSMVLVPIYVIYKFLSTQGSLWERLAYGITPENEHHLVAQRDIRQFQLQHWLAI

[4] = target: T1, human 5-HT2CR (unedited INI isoform); assay: 5-HT-induced Cai2+ release assay in live h5-HT2CR-CHO cells; format: cell-based; settings: for allosteric modulator (PAM/NAM) activity on 5-HT-induced Cai2+ release, in words: 1 nM test compound
male Sprague–Dawley rats [5] = assay: Cocaine self-administration cue reactivity test; format: in vivo; settings: 1 mg/kg ip, rat
dopamine receptor D4 = target: T3, dopamine receptor D4 (Homo sapiens, UniProt P21917); assay: NIMH PDSP radioligand displacement; settings: read-out: % inhib (10 μm)
T3 sequence (P21917 1-419): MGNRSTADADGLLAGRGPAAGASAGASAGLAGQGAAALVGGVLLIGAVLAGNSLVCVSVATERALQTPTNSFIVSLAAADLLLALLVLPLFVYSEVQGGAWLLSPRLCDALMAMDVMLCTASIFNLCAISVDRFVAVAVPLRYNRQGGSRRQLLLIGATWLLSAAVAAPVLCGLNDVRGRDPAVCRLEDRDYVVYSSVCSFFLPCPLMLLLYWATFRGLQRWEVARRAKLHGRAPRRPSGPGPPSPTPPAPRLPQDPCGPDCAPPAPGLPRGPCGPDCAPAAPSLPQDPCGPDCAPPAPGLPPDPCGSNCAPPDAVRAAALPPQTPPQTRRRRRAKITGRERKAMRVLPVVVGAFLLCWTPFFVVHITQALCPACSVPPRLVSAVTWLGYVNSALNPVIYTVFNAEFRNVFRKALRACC

male Sprague–Dawley rats [6] = assay: Spontaneous locomotor activity; format: in vivo; settings: rat
human 5-HT2AR [7] = target: T2, human 5-HT2AR; assay: 5-HT-evoked Cai2+ release assay in live h5-HT2AR-CHO cells; format: cell-based; settings: 1 pM, 1 nM, 1 μM
male Sprague–Dawley rats [8] = assay: WAY163909 vs saline drug discrimination assay; format: in vivo
5-HT1BR = 5-HT1BR (Homo sapiens, UniProt P28222); assay: NIMH PDSP radioligand displacement; settings: read-out: % inhib (10 μm)
Sequence of 5-HT1BR (P28222 whole entry): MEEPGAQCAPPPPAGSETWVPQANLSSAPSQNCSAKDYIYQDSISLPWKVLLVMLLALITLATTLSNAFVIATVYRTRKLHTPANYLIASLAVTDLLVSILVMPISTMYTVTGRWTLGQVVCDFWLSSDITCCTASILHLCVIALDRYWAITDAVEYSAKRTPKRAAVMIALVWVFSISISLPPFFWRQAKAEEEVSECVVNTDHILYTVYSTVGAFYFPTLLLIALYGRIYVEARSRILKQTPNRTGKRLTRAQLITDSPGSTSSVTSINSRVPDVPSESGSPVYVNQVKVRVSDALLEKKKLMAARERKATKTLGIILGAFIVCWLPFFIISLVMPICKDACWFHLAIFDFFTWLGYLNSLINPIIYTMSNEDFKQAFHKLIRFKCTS

## CCCCCCCCCCC[C@@H]1CCN[C@H](C(=O)N[C@@H]([C@H]2O[C@H](SC)[C@H](O)[C@@H](O)[C@H]2O)[C@H](C)Cl)C1.Cl [Compound 1]
[1]; 1 nM, previous titration studies
  shift of the 5-HT-evoked Cai2+ response curve: leftward shift of the 5-HT-evoked Cai^2+ response curve
[1]
  intrinsic agonist activity at the 5-HT2CR: no intrinsic agonist activity
Human 5-HT2AR [2]
  intrinsic agonist activity at the 5-HT2AR: no intrinsic agonist activity

## CCCCCCCCCCC[C@@H]1CCN[C@H](C(=O)NCC(O)CO)C1 (relative stereo) [Compound 16, cis-4-Undecylpiperidine-2-carboxylic Acid (2,3-Dihydroxypropyl)amide]
[3]
  displacement of radioligand binding: did not displace binding
[4]; 1 pM, 1 nM, 1 μM
  effect on 5-HT potency (leftward shift of 5-HT curve): did not impact 5-HT potency
  shift of 5-HT-evoked Cai2+ release concentration-response curve: upward shift of 5-HT-evoked Cai^2+ release at multiple concentrations
[4]
  allosteric modulator (PAM/NAM) activity on 5-HT-induced Cai2+ release, in words: significant PAM activity
[4]; 1 nM, compound alone
  intrinsic agonist efficacy to induce Cai2+ release in the absence of 5-HT: did not stimulate Cai^2+ release
Male Sprague–Dawley rats [5]; 15 min before cue reactivity session
  previously active lever presses reinforced by the discrete cue complex vs saline: significantly lower
Male Sprague–Dawley rats [5]
  inactive lever presses vs saline: did not significantly alter inactive lever presses
Dopamine receptor D4
  inhibition at 10 µM: -14.2%
Male Sprague–Dawley rats [6]; 1 mg/kg ip
  ambulations: not associated with suppressed ambulations
Male Sprague–Dawley rats [6]; 5 mg/kg ip
  mean total ambulations in 30 min vs saline: significantly reduced mean total ambulations
  mean total vertical activity in 30 min vs saline: significantly reduced mean total vertical activity
Human 5-HT2AR [7]
  change in 5-HT Emax or EC50 at the 5-HT2AR: no change in the 5-HT Emax or EC50
Male Sprague–Dawley rats [8]; 0.125–1.0 mg/kg ip, given alone
  substitution for the WAY163909 stimulus, in words: partially substituted for WAY163909
5-HT1BR
  inhibition at 10 µM: -18.1%

## c1cc2c3c(c1)[C@H]1CCC[C@H]1N3CCNC2 [WAY163909, (7b-R,10a-R)-1,2,3,4,8,9,10,10a-octahydro-7bH-cyclopenta[b][1,4]diazepino[6,7,1hi]indole]
Male Sprague–Dawley rats [8]; 0.5 mg/kg ip, given alone
  WAY163909-appropriate responding: ~30%
Male Sprague–Dawley rats [8]; ip, rats trained on WAY163909 0.75 mg/kg vs saline, log-probit
  dose predicted to elicit 50% of WAY163909-lever responding (ED50): 0.53 mg/kg
Male Sprague–Dawley rats [8]; training dose 0.75 mg/kg ip
  WAY163909-appropriate responding: Greater than 95%

## CCCCCCCCCCC[C@@H]1CCN[C@H](C(=O)NC[C@H](O)CO)C1 (mixture of isomers) [Compound 16b, cis-N-((S)-2,3-Dihydroxypropyl)-4-undecylpiperidine-2-carboxamide]
[4]
  allosteric modulator (PAM/NAM) activity on 5-HT-induced Cai2+ release, in words: displayed significant PAM activity

## CCCCCCCCCCC[C@@H]1CCN[C@H](C(=O)NCCO)C1 (relative stereo) [Compound 8, cis-N-(2-Hydroxyethyl)-4-undecylpiperidine-2-carboxamide]
[4]
  allosteric modulator (PAM/NAM) activity on 5-HT-induced Cai2+ release, in words: no significant PAM activity

## CCCCCCCCCCC[C@@H]1CCN[C@H](C(=O)O)C1 [Compound 7, (cis-2,4)-4-Undecylpiperidine-2-carboxylic acid]
[4]
  allosteric modulator (PAM/NAM) activity on 5-HT-induced Cai2+ release, in words: no significant PAM activity

## CCCCCCCCCCC[C@@H]1CCN[C@H](C(=O)NC[C@@H](O)CO)C1 (mixture of isomers) [Compound 16a, cis-N-((R)-2,3-Dihydroxypropyl)-4-undecylpiperidine-2-carboxamide]
[4]
  allosteric modulator (PAM/NAM) activity on 5-HT-induced Cai2+ release, in words: lacked appreciable PAM activity
